This is an account of results in publication PMC7983170 (Biochemical pharmacology, 2018).

Each structure is given as a SMILES string.

The target of this experiment is T1, ABCG2 (Homo sapiens, UniProt Q9UNQ0).
T1 sequence (Q9UNQ0 1-655): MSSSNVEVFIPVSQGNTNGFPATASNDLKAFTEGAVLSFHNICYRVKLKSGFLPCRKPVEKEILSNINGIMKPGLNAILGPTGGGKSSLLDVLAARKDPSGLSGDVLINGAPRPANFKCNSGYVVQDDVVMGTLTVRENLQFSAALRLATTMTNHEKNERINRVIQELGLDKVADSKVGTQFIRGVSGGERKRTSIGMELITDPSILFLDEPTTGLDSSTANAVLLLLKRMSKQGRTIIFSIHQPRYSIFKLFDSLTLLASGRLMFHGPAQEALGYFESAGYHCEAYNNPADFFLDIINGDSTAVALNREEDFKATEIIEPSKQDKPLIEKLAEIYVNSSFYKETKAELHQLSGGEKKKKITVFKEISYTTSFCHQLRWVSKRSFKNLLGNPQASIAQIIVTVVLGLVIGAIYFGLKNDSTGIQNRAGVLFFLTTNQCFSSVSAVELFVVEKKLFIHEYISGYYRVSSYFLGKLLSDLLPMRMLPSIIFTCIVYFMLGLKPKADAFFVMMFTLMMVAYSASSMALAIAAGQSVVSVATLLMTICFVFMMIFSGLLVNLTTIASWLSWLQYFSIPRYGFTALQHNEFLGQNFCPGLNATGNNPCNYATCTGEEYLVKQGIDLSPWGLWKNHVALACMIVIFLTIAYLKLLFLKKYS
The experiment in a line: stimulation of vanadate-sensitive ATPase activity in membrane vesicles. The experiment is classed as biochemical.

`O=C(CCCCCCNC(=O)c1cnc(N(c2ccccc2)c2ccccc2)nc1)NO` [ricolinostat] registered an EC50 of approximately 14.7 µM.

One may read the EC50 as the midpoint of the concentration-response curve. Higher therefore signals lower potency in that assay.
